Measurements taken from patent US20240418626A1, “METHOD, DEVICE, AND SYSTEM FOR CELL IDENTIFICATION” (Ruixin (Fuzhou) Technology Co., Ltd., priority 2021, published 2024).

Key:
Assay type in all cases: cell-based
A549 cells [1] = test: Cell vitality reflected by cellular traction force in A549 cells treated with 5-FU; details: for time of significant decrease in cellular traction force: FIG. 11C
Method: (§1) Specifically, in the present embodiment, non-small cell lung cancer A549 cells are cultured on multiple cellular traction force detection devices, and then are treated with various doses of cell proliferation inhibitor 5-fluorouracil (5-FU). Subsequently, the cellular traction forces at different time are monitored by using the cellular identification system described in the twentieth embodiment. Cell proliferation and cytotoxicity are monitored using the CCK-8 kit, with cell vitality measured by the MTT assay serving as a control group, yielding the data for FIGS. 11B and 11C.

A549 cells [2] = test: Cell vitality by MTT assay in A549 cells treated with 5-FU
Method: as §1

[3] = test system: Breast cancer cells MCF-7 tumor cell aggregates; test: 5-Fu drug sensitivity of tumor cell aggregates on the cellular traction force detection device; details: MCF-7 aggregates, 200 μM, cultured for one day, FIGS. 13A and 13B
Method: S1, Generation of tumor cell aggregates: FN 50 μg/mL is coated on the top of the micro-/nano-pillars of the cellular traction force detection device and sterilized with UV light for 30 minutes. Breast cancer cells MCF-7 (approximately 1×10^5 to 9×10^5 cells) are seeded on the surface of the micro-/nano-pillars of the cellular traction force detection device (number of micro-/nano-pillars not limited) and then cultured in 3dGRO™ Spheroid Medium (S3077) for more than three days to guide the formation of tumor cell aggregates.
S2, Applying the generated tumor cell aggregates to 5-Fu drug sensitivity experiments: 200 μM of 5-Fu is added to the tumor cell aggregates and cultured for one day. In the experiment, cellular traction force detection devices with tumor cell aggregates (along with the culture medium) before and after the addition of 5-Fu are monitored using the information acquisition unit (CCD sensor) within the cellular identification device to capture light reflection signals.

[4] = various doses of 5-FU, FIGS. 11B and 11C

## O=c1[nH]cc(F)c(=O)[nH]1 [5-FU, 5-fluorouracil]
A549 cells [1]; 0.5 μM treatment dose
  time of significant decrease in cellular traction force: 6 h
A549 cells [1]; 1 μM treatment dose
  time of significant decrease in cellular traction force: 3 h
A549 cells [1]; different doses, treatment for 24 hours, FIG. 11B
  cellular vitality as reflected by traction forces compared to control group DMSO: decreases more significantly
A549 cells [1]; [4]
  cell vitality reflected by cellular traction forces: dose-dependent decrease
A549 cells [2]; after 12 hours of treatment, FIG. 11C
  changes in cell vitality measured by the MTT assay: not noticeable
A549 cells [2]; [4]
  cell vitality measured by the traditional MTT assay: dose-dependent decrease
[3]
  reflection signals of tumor cell aggregates after treatment: significantly weaken
